Each compound was assayed against Recombinant human CD33 protein (Homo sapiens (Human), UniProt P20138) (assay: CD33 competitive binding assay for HTS drug screen (fluorescent multivalent sialic acid probe)).
Recombinant human CD33 protein, sequence (P20138 18-259): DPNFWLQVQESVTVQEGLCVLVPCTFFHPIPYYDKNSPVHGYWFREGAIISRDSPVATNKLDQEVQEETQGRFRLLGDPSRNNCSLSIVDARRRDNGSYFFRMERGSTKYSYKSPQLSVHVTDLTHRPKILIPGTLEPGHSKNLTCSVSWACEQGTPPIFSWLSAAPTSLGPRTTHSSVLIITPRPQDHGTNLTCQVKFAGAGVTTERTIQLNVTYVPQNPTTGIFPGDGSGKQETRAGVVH
Procedure: This is a competitive binding assay that uses recombinant CD33 immobilized to a plate and a fluorescently-labeled multivalent sialic acid analog as a probe. Binding of drug to the site on CD33 to which sialic acid binds is detected by reduced binding of the fluorescent probe. Recombinant human CD33 protein (for example Acro Biosystems cat #CD3-H5257) was added at a concentration of 10 μg/ml in 20 mM acetate buffer (pH5.5) to a black plastic plate (Corning 4510) and allowed to incubate overnight at 4° C. The next day, the wells were washed 3 times with PBS containing 0.02% Tween-20. This was followed by a 30-minute incubation with PBS containing 0.2% Tween-20 and 0.5% BSA to block non-specific binding to the well. This buffer is removed and replaced with 10 μl of the same buffer, which is also used as the assay buffer. The fluorescent multivalent sialic acid probe was prepared as a 4× concentration as follows. A biotinylated sialic acid analog A-375 was mixed with biotin-4-Fluorescein isothiocyanate (biotin-4-FITC) at a 3:1 molar ratio with final concentrations (4× stock) of 60 μM A-375 and 20 μM biotin-4-FITC. After these were mixed, 20 μM of neutravidin was added, which should form complexes consisting of neutravidin, fluorescein and sialic acid with an average complex consisting of 1 neutravidin, 1 FITC and 3 sialic acid analogs. The multimerization of the sialic acid analog is critical to the assay and improves the affinity of the sialic acid analog several orders of magnitude. A test compound, for example A-001, is added at 5 μl to the 10 μl assay buffer already in the well. After a brief incubation, 5 μl of the 4× stock solution of sialic acid complexes was added. The final concentration of the complexes was therefore 5 μM neutravidin, 15 μM A-375 and 5 μM FITC. The plate was incubated at room temperature for 30 mins and then washed with PBS containing 0.2% Tween-20. Binding of the sialic acid complex is very stable, with an off-rate of several days. Bound complex was then detected using a standard plate reader to quantify FITC fluorescence.
`CC(=O)N[C@H]1[C@H]([C@H](O)[C@H](O)CNC(=O)c2cc(C)c(O)c(C)c2)O[C@@](CCN2CCOC[C@@]23CCN(C(=O)C2(C)CCCO2)C3)(C(=O)O)C[C@@H]1O` (stereo partly shown) [A-077] gave an EC50 of 283 nM. `CC(=O)N[C@H]1[C@H]([C@H](O)[C@H](O)CNC(=O)c2cc(C)c(O)c(C)c2)O[C@@](CCN2CCCCC23CCN(C(=O)OC(C)(C)C)C3)(C(=O)O)C[C@@H]1O` (stereo partly shown) [A-022] gave an EC50 of 2930 nM. `Cc1cc(C(=O)NC[C@@H](O)[C@@H](O)[C@@H]2O[C@@](CCN3CCOC[C@@]34CCN(C(=O)OC(C)(C)C)C4)(C(=O)O)C[C@H](O)[C@H]2N(C)C)cc(C)c1O` [A-203] gave an EC50 greater than 5000 nM. For `CC(=O)N[C@H]1[C@H]([C@H](O)[C@H](O)CNC(=O)c2cc(C)c(O)c(C)c2)O[C@@](CCN2CCOC[C@@]23CCN(C(=O)C2CCC(F)(F)CC2)C3)(C(=O)O)C[C@@H]1O` [A-075], the EC50 was 99 nM. `Cc1cc2cc(C)c1OCCCC[C@H](NC(=O)C1CCCOC1)c1cccc(c1)/C=C/C[C@]1(C(=O)O)C[C@H](O)[C@@H](NC(=O)Cn3cc(C4CCCCC4)nn3)[C@@H](O1)[C@H](O)[C@H](O)CNC2=O` (stereo partly shown) [A-350] gave an EC50 of 13300 nM. `CC(=O)N[C@H]1[C@H]([C@H](O)[C@H](O)CNC(=O)c2cc(C)c(O)c(C)c2)O[C@@](CCN2CCOC[C@@]23CCN(c2cc(C(F)(F)F)ccn2)C3)(C(=O)O)C[C@@H]1O` [A-039] was tested, and the EC50 was 95 nM. `Cc1cc(C(=O)NCC(O)C[C@@H]2O[C@@](CCN3CCOC[C@@]34CCN(C(=O)OC(C)(C)C)C4)(C(=O)O)CCC2C)cc(C)c1O` (single isomer, unassigned) [A-214] was tested, and the EC50 was 9800 nM. For `CC(=O)N[C@H]1[C@H]([C@H](O)[C@H](O)CNC(=O)c2cc(C)c(O)c(C)c2)O[C@@](CCN2CCOCC23CN(C(=O)OC(C)(C)C)C3)(C(=O)O)C[C@@H]1O` [A-008], the EC50 was 538 nM. `Cc1cc(C(=O)NC[C@H](O)C[C@H]2CC[C@@H](C)[C@](CCN3CCOC[C@@]34CCN(C(=O)OC(C)(C)C)C4)(C(=O)O)O2)cc2cc[nH]c12` [A-219] gave an EC50 greater than 20000 nM. `CC(=O)N[C@H]1[C@H]([C@H](O)[C@H](O)CNC(=O)c2cc(C)c(O)c(C)c2)O[C@@](CCN2CCOC[C@@]23CCN(C(=O)C(c2ccccc2)C2CCCCC2)C3)(C(=O)O)C[C@@H]1O` (stereo partly shown) [A-089] gave an EC50 of 291 nM. `C#C[C@H](C)C(=O)C(=O)Nc1cccc([C@@H]2OC(C)(C)OC2C[C@]2(C(=O)O)C[C@H](O)[C@@H](NC(C)=O)[C@H]([C@H](O)[C@H](O)CNC(=O)c3cc(C)c(O)c(C)c3)O2)c1` (stereo partly shown) [A-306] was tested, and the EC50 was 5620 nM. `Cc1cc(C(=O)NC[C@H](O)C[C@H]2CC[C@H](C)[C@](CCN3CCOC[C@@]34CCN(C(=O)OC(C)(C)C)C4)(C(=O)O)O2)cc2cc[nH]c12` [A-218] gave an EC50 greater than 20000 nM. `CC(=O)N[C@H]1[C@H]([C@H](O)[C@H](O)CNC(=O)c2cc(C)c(O)c(C)c2)O[C@@](CCN2CCN(C)C[C@@]23CCN(C(=O)NC(C)(C)C)C3)(C(=O)O)C[C@@H]1O` [A-105] showed an EC50 of 8 nM. Compound `CC(=O)N[C@H]1[C@H]([C@H](O)[C@H](O)CNC(=O)c2cc(C)c(O)c(C)c2)O[C@@](CCN2CCOC[C@@]23CCN(C(=O)c2ccco2)C3)(C(=O)O)C[C@@H]1O` [A-093] has an EC50 of 892 nM. With `CC(=O)N[C@H]1[C@H]([C@H](O)[C@H](O)CNC(=O)c2cc(C)c(O)c(C)c2)O[C@@](CCN2CCC[C@]23CCN(C(=O)OC(C)(C)C)C3)(C(=O)O)C[C@@H]1O` [A-020] the EC50 was 472 nM. Compound `CC(=O)N[C@H]1[C@H]([C@H](O)[C@H](O)CNC(=O)c2cc(C)c(O)c(C)c2)O[C@@](CCN2CCOC[C@@]23CCN(C(=O)c2ccccn2)C3)(C(=O)O)C[C@@H]1O` [A-087] has an EC50 of 5260 nM. In the case of `C=C(OC(C)(C)C)N1CC2(CCN2CC[C@]2(C(=O)O)C[C@H](O)[C@@H](NC(C)=O)[C@H]([C@H](O)[C@H](O)CNC(=O)c3cc(C)c(O)c(C)c3)O2)C1` [A-021], the EC50 is reported as 887 nM. In the case of `Cc1cc(C(=O)NCC(O)C[C@@H]2O[C@@](C/C=C/C3CCN(C(=O)OC(C)(C)C)C3)(C(=O)O)CCC2C)cc(C)c1O` (single isomer, unassigned) [A-210], the EC50 is reported as 21400 nM. Work on `Cc1cc(C(=O)NC[C@@H](O)C[C@H]2CC[C@@H](C)[C@](CCN3CCOC[C@@]34CCN(C(=O)OC(C)(C)C)C4)(C(=O)O)O2)cc2cc[nH]c12` [A-217] yielded an EC50 greater than 20000 nM. `CC(=O)N[C@H]1[C@H]([C@H](O)[C@H](O)CNC(=O)c2cc(C)c(O)c(C)c2)O[C@@](CCN2CCNC[C@]23CCN(C(=O)NC(C)(C)C)C3)(C(=O)O)C[C@@H]1O` [A-107] gave an EC50 of 379 nM. `CC(=O)N[C@H]1[C@H]([C@H](O)[C@H](O)CNC(=O)c2cc(C)c(O)c(C)c2)O[C@@](CCN2CCOC[C@@]23CCN(c2cc(C)ccn2)C3)(C(=O)O)C[C@@H]1O` [A-038] gave an EC50 of 53 nM. For `CC(=O)N[C@H]1[C@H]([C@H](O)[C@H](O)CNC(=O)c2cc(C)c(O)c(C)c2)O[C@@](CCN2CCOC[C@@]23CCN(C(=O)NC(C)(C)c2ccccc2)C3)(C(=O)O)C[C@@H]1O` [A-055], the EC50 was 247 nM. `CC(=O)N[C@H]1[C@H]([C@H](O)[C@H](O)CNC(=O)c2cc(C)c(O)c(C)c2)O[C@@](CCN2CCOC[C@@]23CCN(C(=O)C2CCC(F)(F)C2)C3)(C(=O)O)C[C@@H]1O` (stereo partly shown) [A-074] showed an EC50 of 263 nM. With `CC(=O)N[C@H]1[C@H]([C@H](O)[C@H](O)CNC(=O)c2cc(C)c(O)c(C)c2)O[C@@](CCN2CCOC[C@@]23CCN(C(=O)COC(C)C)C3)(C(=O)O)C[C@@H]1O` [A-084] the EC50 was 1560 nM. With `CC(=O)N[C@H]1[C@H]([C@H](O)[C@H](O)CNC(=O)/C=C/c2cn[nH]c2)O[C@@](CCN2CCOC[C@@]23CCN(C(=O)OC(C)(C)C)C3)(C(=O)O)C[C@@H]1O` [A-176] the EC50 was 650 nM. `Cc1cc(C(=O)NCC(O)C[C@@H]2O[C@@](CCN3CCOC[C@@]34CCN(C(=O)OC(C)(C)C)C4)(C(=O)O)CCC2C)cc(C)c1O` (single isomer, unassigned) [A-213] gave an EC50 of 17900 nM. For `CC(=O)N[C@H]1[C@H]([C@H](O)[C@H](O)CNC(=O)c2cc(C)c(O)c(C)c2)O[C@@](CCN2CCOC[C@@]23CCN(C(=O)CC(C)c2ccccc2)C3)(C(=O)O)C[C@@H]1O` (stereo partly shown) [A-068], the EC50 was 101 nM. For `CC(=O)N[C@H]1[C@H]([C@H](O)[C@H](O)CNC(=O)c2cc(C)c(O)c(C)c2)O[C@@](C/C=C/C2CCN(c3cc(N(C)C)ccn3)C2)(C(=O)O)C[C@@H]1O` (stereo partly shown) [A-199], the EC50 was 9860 nM. With `CC(=O)N[C@H]1[C@H]([C@H](O)[C@H](O)CNC(=O)c2cc(C)c(O)c(C)c2)O[C@@](CCN2CCOC[C@@]23CCN(C(=O)C2CCOCC2)C3)(C(=O)O)C[C@@H]1O` [A-091] the EC50 was 452 nM. For `CC(=O)N[C@H]1[C@H]([C@H](O)[C@H](O)CNC(=O)c2cc(C)c(O)c(C)c2)O[C@@](CC2OC(C)(C)O[C@H]2c2ccc3c(c2)N(C(=O)OC(C)(C)C)CC3)(C(=O)O)C[C@@H]1O` (stereo partly shown) [A-308], the EC50 was 2940 nM. `CC(=O)N[C@H]1[C@H]([C@H](O)[C@H](O)CNC(=O)c2cc(C)c(O)c(C)c2)O[C@@](CCN2CCOC[C@@]23CCN(C(=O)NC(C)(C)C(C)C)C3)(C(=O)O)C[C@@H]1O` [A-050] was tested, and the EC50 was 20 nM. With `COC[C@@]1(NCC[C@]2(C(=O)O)C[C@H](O)[C@@H](NC(C)=O)[C@H]([C@H](O)[C@H](O)CNC(=O)c3cc(C)c(O)c(C)c3)O2)CCN(C(=O)OC(C)(C)C)C1` [A-030] the EC50 was 49 nM. Compound `CC(=O)N[C@H]1[C@H]([C@H](O)[C@H](O)CNC(=O)c2cc(C)c(O)c(C)c2)O[C@@](C/C=C/C2(F)CCN(C(=O)OC(C)(C)C)C2)(C(=O)O)C[C@@H]1O` (stereo partly shown) [A-198] has an EC50 of 148 nM. Compound `CC(=O)N[C@H]1[C@H]([C@H](O)[C@H](O)CNC(=O)c2cc(C)c(O)c(C)c2)O[C@@](CCN2CCC[C@@]23CCN(C(=O)OC(C)(C)C)C3)(C(=O)O)C[C@@H]1O` [A-019] has an EC50 of 28 nM. Compound `CC(=O)N[C@H]1[C@H]([C@H](O)[C@H](O)CNC(=O)c2cc(C)c(O)c(C)c2)O[C@@](CCN2CCOC[C@@]23CCN(C(=O)c2c(C)cccc2C)C3)(C(=O)O)C[C@@H]1O` [A-086] has an EC50 greater than 5000 nM. In the case of `Cc1cc(C(=O)NCC(O)C[C@@H]2O[C@@](C/C=C/C3CCN(C(=O)OC(C)(C)C)C3)(C(=O)O)CCC2C)cc(C)c1O` (single isomer, unassigned) [A-209], the EC50 is reported as 44500 nM. `CC(=O)N[C@H]1[C@H]([C@H](O)[C@H](O)CNC(=O)c2cc(C)c(O)c(C)c2)O[C@@](CCN2CCOC[C@@]23CCN(C(=O)NC2(c4ccccc4)CC2)C3)(C(=O)O)C[C@@H]1O` [A-054] gave an EC50 of 147 nM. Compound `COC(C)C(=O)N1CC[C@@]2(COCCN2CC[C@]2(C(=O)O)C[C@H](O)[C@@H](NC(C)=O)[C@H]([C@H](O)[C@H](O)CNC(=O)c3cc(C)c(O)c(C)c3)O2)C1` (stereo partly shown) [A-082] has an EC50 greater than 5000 nM. Work on `CC(=O)N[C@H]1[C@H]([C@H](O)[C@H](O)CNC(=O)c2cc(C)c(O)c(C)c2)O[C@@](CN2CCCC3(CCN(C(=O)OC(C)(C)C)C3)C2)(C(=O)O)C[C@@H]1O` (stereo partly shown) [A-193] yielded an EC50 of 90 nM. With `C=C(OC(C)(C)C)N1CCC2(CC1)CCN2CC[C@]1(C(=O)O)C[C@H](O)[C@@H](NC(C)=O)[C@H]([C@H](O)[C@H](O)CNC(=O)c2cc(C)c(O)c(C)c2)O1` [A-023] the EC50 was 176 nM.
